Assay [1] has as its target T1, human leukocyte 5-lipoxygenase (Homo sapiens, UniProt P09917).
T1 construct: endogenous in cells; host or cells: intact leukocytes isolated from human blood
T1 sequence (P09917 1-674): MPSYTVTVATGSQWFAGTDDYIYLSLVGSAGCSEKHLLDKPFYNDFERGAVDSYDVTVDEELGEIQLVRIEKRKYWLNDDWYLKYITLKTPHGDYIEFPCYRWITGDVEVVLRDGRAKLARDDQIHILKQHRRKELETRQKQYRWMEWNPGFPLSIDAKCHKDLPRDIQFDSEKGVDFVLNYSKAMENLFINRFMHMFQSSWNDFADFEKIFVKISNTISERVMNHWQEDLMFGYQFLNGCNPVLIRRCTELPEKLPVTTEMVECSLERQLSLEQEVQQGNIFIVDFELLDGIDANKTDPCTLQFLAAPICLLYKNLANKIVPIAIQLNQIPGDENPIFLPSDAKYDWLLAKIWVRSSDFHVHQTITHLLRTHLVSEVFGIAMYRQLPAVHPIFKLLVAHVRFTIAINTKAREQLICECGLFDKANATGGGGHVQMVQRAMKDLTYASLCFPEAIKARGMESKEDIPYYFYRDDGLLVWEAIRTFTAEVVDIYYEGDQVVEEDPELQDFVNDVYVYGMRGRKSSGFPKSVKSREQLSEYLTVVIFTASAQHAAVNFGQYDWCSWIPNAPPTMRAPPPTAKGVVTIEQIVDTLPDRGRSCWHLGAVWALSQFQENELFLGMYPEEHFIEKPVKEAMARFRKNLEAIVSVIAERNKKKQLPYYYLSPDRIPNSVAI
As to the kind of experiment: 5-lipoxygenase inhibition in human leukocytes, 5-HETE formation (5LOA; methods 5LOA1 and 5LOA2). The format is cell-based. To be noted: 5-HETE formation, human leukocytes; read-out: Concentration (M) for 50.0 % Inhibition, IC (5LOA). The text has this: To Evaluate the Effect of Each Compounds as a 5-Lipoxygenase Inhibitor in Comparison to Standard Reference Agents in Human Leukocytes (5LOA1)
The purpose of this assay is to evaluate the activity of each compound as an inhibitor of human leukocyte 5-lipoxygenase.
Arachidonic acid and calcium ionophore A23187 are obtained from Sigma (St. Louis, MO). Silica gel plates, GF are obtained from Analtech (Newark, DE). Arachidonic acid, (1-^14 C) and 5-HETE (^3 H), 5 (S)-hydroxy-6-trans,8,11,14-cis eicosatetraenoic acid, are obtained from New England Nuclear (Boston, MA). Six percent Dextran-70 in 0.9% NaCl is obtained from Cutter Labs (Berkeley, CA).
Preparation of Leukocytes
Fresh blood from normal adult men who had not received any drugs for at least the previous five days is obtained by the Community Research Clinic (WL/PD) using venipuncture and collected into heparinized vacuotainer tubes. To every 100 ml of pooled blood is added 25 ml of dextran solution (6% dextran -70 in 0.9% sodium chloride containing 3% dextrose) and this is mixed gently in a plastic cylinder. The mixture is left to stand at room temperature for at least 90 minutes. The upper layer which is rich in leukocytes and platelets is then carefully decanted into 50 ml plastic tubes and centrifuged at about 100×g for eight minutes in an IEC centrifuge and rotor number 269 (about 600 rpm). The supernatant fluid is discarded and the pellet is resuspended in 10 ml of 0.87% ammonium chloride for exactly two minutes. This procedure is to lyse completely contaminating red blood cells. Leukocytes are then separated by centrifugation for ten minutes. The pellet is washed three times by suspension in 20 ml PBS (sodium chloride, 7.1 g; Na2 HPO4, 1.15 g; KH2 PO4, 0.2 g, and KCl, 0.2 g/L) and centrifuged as before. The final pellet is suspended in PBS containing 0.87 mM CaCl2. Viability of the cells is then checked using trypan blue exclusion method and is found to be over 90%.
5-Lipoxygenase Enzyme Assay
Leukocyte cells in suspension (0.98 ml) are incubated with or without test compounds for five minutes at 37° C. in a shaking water bath. At this time a 17 μl mixture is prepared per 1 ml of cell suspension: 100 mM arachidonic acid, 1 μl, 0.05 μCi ^14 C-arachidonic acid in 5 μl; 1 mM calcium ionophore A23187, 10 μl (1). This mixture is added and the incubation continued for five minutes. The reaction is stopped by adding four volumes of absolute ethanol and the mixture is kept in ice for 30 minutes. The floculated precipitate is separated by centrifugation at about 37,000×g for 20 minutes (Beckman Instruments rotor number 40). The alcohol extract is taken to dryness under a stream of nitrogen and the residue is dissolved in 100-200 μl absolute ethanol. At the time any turbidity is removed by centrifugation. An aliquot (25-50 μl) is applied onto 20×20 cm silica gel TLC plate and developed using the following solvent system: diethyl ether, petroleum ether (2040° C.), acetic acid (50:50:1 v/v). Zones of 1 cm apart are scraped from the TLC plate and transferred to mini-vials. Methanol (0.5 ml) is added to dissolve the radioactivity adsorbed to the silica gel and scintillation fluid (H. P., Beckman), 5 ml is then added and vials are counted in a liquid scintillation counter. A sample of ^3 H-5-HETE is applied and used for the identification of the formed 5-HETE.
Total radioactivity in the test as well as the control samples are normalized and the amount of 5-HETE present is calculated accordingly.
IC50 values are defined as the concentrations of test agents which caused a 50% inhibition of the formation of 5-HETE as compared to control and are determined by inspection of the concentration-response curves.
5-Lipoxygenase Assay Using Isolated Human Leukocytes (5LOA2)
The formation of 5-HETE in human leukocytes is considered a measure of 5-lipoxygenase activity. The protocol is described in the following. […]

Assay [2] concerns the target T2, leukotriene receptor (guinea pig lung membranes) (Cavia porcellus, UniProt Q2NNR5).
T2 construct: 20 mg original tissue wet weight of guinea pig lung; tissue Kuiper Rabbit Farm, Gary, IN (animals); host or cells: guinea pig lung, crude membranes
T2 sequence (Q2NNR5 1-340): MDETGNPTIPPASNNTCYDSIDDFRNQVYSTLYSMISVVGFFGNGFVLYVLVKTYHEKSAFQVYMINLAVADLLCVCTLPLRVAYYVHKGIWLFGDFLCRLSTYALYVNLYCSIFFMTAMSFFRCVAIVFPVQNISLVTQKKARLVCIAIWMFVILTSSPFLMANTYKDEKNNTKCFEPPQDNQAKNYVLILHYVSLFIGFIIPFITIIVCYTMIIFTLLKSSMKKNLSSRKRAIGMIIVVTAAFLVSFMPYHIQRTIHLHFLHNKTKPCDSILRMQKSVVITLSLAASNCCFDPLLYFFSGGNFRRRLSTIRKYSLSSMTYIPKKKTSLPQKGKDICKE
As to the kind of experiment: Binding of ^3 H-Leukotriene D4 to Guinea Pig Lung Membranes (RBL). Conditions: 0.2 nM ^3 H-LTD4, 60 min, 25° C.; read-out: Concentration (M) for 50.0 % Inhibition, IC (RBL). An outline of the steps:
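Crude lung membranes from 300 g male guinea pigs (20 mg tissue/ml) were incubated in triplicate with 0.2 nM ³H-LTD4 in 50 mM Tris pH 7.7, 10 mM MgCl2, 1% DMSO for 60 min at 25 °C. Bound ligand was collected by GF/B filtration and scintillation counting; nonspecific binding defined with 100 nM LTC4.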

In assay [3] the target is Human Leukocyte Lipoxygenase. As to the kind of experiment: Human Leukocyte Lipoxygenase Assay (LDA-H). It is filed as biochemical. Conditions: for IC50: acetone-pentane powder enzyme, 234 nm, 24° C., 5 min preincubation, read-out: Concentration (M) for 50.0 % Inhibition, IC (LDAH). How it is done: Human Leukocyte Lipoxygenase Assay (LDA-H)
Whole blood is collected from normal volunteers and spun in a refrigerated centrifuge for four minutes at 1°-6° C. at 3800 g. The buffy coat is manually separated and washed twice with chilled 0.83% NH4 Cl and centrifuged at 1000 RPM for ten minutes at 4° C. The white cell is suspended in culture media-EMEM supplemented with 6% Agamma human serum, tricine buffer, and neomycin and recentrifuged at 1000 g to yield a pellet containing the leukocytes used for the preparation of the acetone pentane powder.
The acetone-pentane powder is prepared utilizing a modification of the procedure reported for human platelet lipoxygenase. See Siegel, et al, Arachidonate Metabolism via Lipoxygenase and 12-L-hydroperoxy-5 Eicosatetraenoic Acid Peroxidase Sensitive to Antiinflammatory Drugs, Proc. Natl. Acad. Sci., USA 77: 308, 1980 and D. P. Wallach and V. R. Brown, A Novel Preparation of Human Platlet Lipoxygenase, Biochem. Biophys. Acta. 663: 361, 1981. Buffy coat prepared above is resuspended in 5-7 volumes of cold 0.1M Tris buffer, pH 7.4 containing 0.154M NaCl. The suspension is centrifuged at 13,300 g for ten minutes at 4° C. The resultant pellet is retained, resuspended in five volumes of cold acetone, recentrifuged at 13,300 g and resuspended in five volumes of cold pentane. The pentane suspension is centrifuged for ten minutes at 13,300 g to give a pellet which is dried in the cold under vacuum with periodic pulverization. The dry powder is stable for several weeks when stored at -80° C.
Enzyme stock solution is prepared in the following manner. About 15 mg of the acetone-pentane powder is suspended in 4 ml of cold tris buffer (0.1M, pH 7.4), allowed to stand for five minutes, and homogenized thoroughly. The homogenate is sonicated three times for 15 seconds each time, diluted to 7 ml with cold tris buffer (0.1M, pH 7.4), and centrifuged at 4° C. for 60 minutes at 13,300 g. the supernatent is retained and diluted to a total of 10 ml with cold tris buffer (0.1M, pH 7.4) to give the stock enzyme solution. Additional dilutions of 2-50 fold are done as necessary to locate optimal enzyme reaction rate in the assay described below.
Substrate solution is prepared at 100 μM or 1.0 μM concentrations of arachidonic acid or linoleic acid in 0.1M tris buffer, pH 9.0 containing 20% ethanol.
The enzyme reaction is followed spectrophotometrically by the appearance of a conjugated diene product at 234 nm. The reaction is monitored at 24° C. using a Gilford Model 2600 spectrophotometer. […] The effects of inhibitors on the reaction are compared with control reactions run under indentical conditions. Routinely, each compounds of the present invention is incubated with the enzyme for five minutes prior to addition of substrate to initiate the reaction. Inhibition expressed as IC50 as molar concentration of the compound required to reduce reaction rate to 50% control.

Molecules are shown by their SMILES. Several values for one entry are separate records, joined by “and”; a condition that tells them apart may be missing. Equal values may be shown once.

For `O=C(Nc1ccc(CCc2ccc(Cl)cc2)cc1)c1sc2ccccc2c1O` [Example 145, Benzo[b]thiophene-2-carboxamide, N-[4-[2-(4-chlorophenyl)ethyl]phenyl]-3-hydroxy], in assay [1], the IC50 was determined as 1.21e-05 M.

Regarding `COc1cccc(CCc2ccc(NC(=O)C3CS(=O)(=O)c4ccccc4C3=O)cc2)c1` (centres unmarked) [Example 39], the IC50 in assay [2] amounted to 2.48e-05 M; in assay [3], 5.7e-05 M.

On to `CCCCCCCCc1ccc(NC(=O)C2CS(=O)(=O)c3ccccc3C2=O)cc1` (centres unmarked) [Example 59, 3,4-Dihydro-N-(4-octylphenyl)-4-oxo-2H-1-benzothiopyran-3-carboxamide, 1,1-dioxide], for which, in assay [2], the IC50 was 7.29e-06 M. In addition, the “% Inhibition (LDAH)” value in assay [3] (Concentration 2.50 E -5 M) is on record as 0.0%.

On to `CCCCCCCCCCCCc1ccc(NC(=O)C2CS(=O)(=O)c3ccccc3C2=O)cc1` (centres unmarked) [Example 61, N-(4-Dodecylphenyl)-3,4-dihydro-4-oxo-2H-1-benzothiopyran-3-carboxamide, 1,1-dioxide], for which the IC50 was 2e-05 M and 2.05e-05 M in assay [2]; 1e-06 M in assay [3].

Consider `O=C(Nc1ccc(CCc2ccc(O)cc2)cc1)C1CS(=O)(=O)c2ccccc2C1=O` (centres unmarked) [Example 40], for which the IC50 in assay [2] is 5.6e-05 M; in assay [3], 8.2e-05 M.

With `O=C(Nc1ccc(CCc2cccc(O)c2)cc1)C1CS(=O)(=O)c2ccccc2C1=O` (centres unmarked) [Example 82], the IC50 in assay [2] turned out to be 3.95e-05 M. In addition, the “% Inhibition (LDAH)” value in assay [3] (Concentration 8.00 E -5 M) is 0.0%.

On to `O=C(Nc1ccc(CCc2ccc(Cl)cc2Cl)cc1)C1=C(O)c2ccccc2S(=O)(=O)C1` [Example 72, 2H-1-Benzothiopyran-3-carboxamide, N-[4-[2-(2,4-dichlorophenyl)ethyl]phenyl]-4-hydroxy-1,1-dioxide], for which the IC50 in assay [2] came out at 3.5e-06 M; in assay [3], 2.6e-06 M.

As to `O=C(Nc1ccc(CCc2ccc(O)c(O)c2)cc1)C(=O)c1sc2ccccc2c1O` [Example 134, N-[4-[2-(3,4-Dihydroxyphenyl)ethyl]phenyl]-3-hydroxy-α-oxo-benzo[b]thiophene-2-acetamide], the IC50 in assay [2] amounted to 6.88e-05 M; in assay [3], 8.2e-06 M.

Consider `O=C(Nc1ccc(CCc2ccccc2O)cc1)C1=C(O)c2ccccc2S(=O)(=O)C1` [Example 38], for which the IC50 in assay [2] came out at 6.68e-06 M. In assay [3] (Concentration 2.50 E -5 M), the “% Inhibition (LDAH)” value came out at 0.0%.

Take `O=C(Nc1ccc(CCc2cc(O)cc(O)c2)cc1)C1=C(O)c2ccccc2S(=O)(=O)C1` [Example 33, N-[4-[2-(3,5-Dihydroxyphenyl)ethyl]phenyl]-4-hydroxy-2H-1-benzothiopyran-3-carboxamide, 1,1-dioxide]: the IC50 was found to be 8.2e-05 M in assay [2] and 2.5e-05 M in assay [3].

With `O=C(Nc1ccc(CCc2ccc(Cl)c(Cl)c2)cc1)C1CS(=O)(=O)c2ccccc2C1=O` (centres unmarked) [Example 11, N-[4-[2-(3,4-Dichlorophenyl)ethyl]phenyl]-3,4-dihydro-4-oxo-2H-1-benzothiopyran-3-carboxamide, 1,1-dioxide], the IC50 in assay [2] came to 3.64e-06 M; in assay [3] it was 1.1e-06 M.

For the molecule `CCCCCCc1ccc(NC(=O)C2CS(=O)(=O)c3ccccc3C2=O)cc1` (centres unmarked) [Example 58, N-(4-Hexylphenyl)-3,4-dihydro-4-oxo-2H-1-benzothiopyran-3-carboxamide, 1-1-dioxide], the IC50 in assay [2] was determined as 8.47e-06 M. The “% Inhibition (LDAH)” value in assay [3] (Concentration 8.00 E -5 M) is 0.0%.
